# Reference: US20020082273A1, “Agents for use in the treatment of alzheimer's disease” (priority 1998, published 2002)
# “And” between values parts separate entries of the source, which are not always exact repeats. Equal entries are not always repeated. “Also recorded” adds a separate entry of the source.
# How the values were obtained:
# TBARS assay of OH. = type: biochemical; conditions: scavenger 5 mM; Fe^3+ or Cu^2+
# Protocol: All data points are means ±SD, n=3.
# The Thiobarbituric Acid-Reactive Substance (TBARS) assay for incubation mixtures with Fe^3+ or Cu^2+ was performed in a 96-well microtiter format modified from established protocols (Gutteridge et al. Biochim. Biophys. Acta 759: 38-41 (1983)). Aβ peptide species (10 μM) or Vitamin C (100 μM), were incubated with Fe^3+ or Cu^2+ (1 μM) and deoxyribose (7.5 mM, Sigma) in PBS, pH 7.4. Following incubation (37° C., 1 hour), glacial (17 M) acetic acid and 2-thiobarburic acid (1%, w/v in 0.05 M NaOH, Sigma) were added and heated (100° C., 10 min). The final mixtures were placed on ice for 1-3 minutes before absorbances at 532 nm were measured. The net absorbance change for each sample were obtained by deducting the absorbance from a control sample consisting of identical chemical components except for the Vitamin C or Aβ peptides.
# Aβ = assay: Effect of agents on Cu^2+-induced SDS-resistant Aβ polymerization; type: biochemical, human
# Protocol: Cu^2+-induced SDS-resistant oligomerization of Aβ: Aβ (2.5 μM), 150 mM NaCl, 20 mM hepes (pH 6.6, 7.4, 9) with or without ZnCl2 or CuCl2. Following incubation (37° C.), aliquots of each reaction (2 ng peptide) were collected at 0 d, 1 d, 3 d and 5 d and western blotted using anti-Aβ monoclonal antibody 8E10 (FIG. 9). Migration of the molecular size markers are indicated (kDa). […] Cu^2+ (2-30 μM) induced SDS-resistant polymerization of peptide. […] It should be noted that other means of visualizing and/or determining the presence or absence of polymerization other than western blot analysis may be used. Such other means include but are not limited to density sedimentation by centrifugation of the samples.
# It is possible that the decreased polymerization may be due to chelation of Cu^2+ by BC, however given the low binding affinity of BC for Cu^2+ compared with Aβ, it seems likely that the chelation of Cu^+ by BC prevents it from inducing SDS-resistant Ad polymerization. Therefore, Aβ may undergo a hydroxyl radical modification that promotes its assembly into SDS-resistant polymers.
# [1] = tested on: Aβ deposits of AD-affected brain; assay: Extraction (solubilization) of Aβ from post-mortem AD brain tissue homogenates, western blot densitometry; type: biochemical, human
# Protocol: Identical regions of frontal cortex (0.5 g) from post-mortem brains of individuals with AD, as well as non-AD conditions, were homogenized in TBS, […] ±metal chelators.
# 0.5 g of prefrontal cortex was dissected and homogenized in PBS ±chelator as indicated. The homogenate was then centrifuged (100,000 g) and the supernatant removed, and a sample taken for western blot assay using anti-Aβ specific antibodies after Tricine PAGE. Densitometry was performed against synthetic peptide standards.
# Densitometry of Aβ western blots (FIGS. 19A-19C) was performed for a series of 6 AD brain samples homogenized in the presence of chelators as indicated.
# Next the ability of clioquinol to extract Aβ deposits from human brain was examined. […] Fragments of prefrontal cortex from individual post-mortem samples with the histopathological diagnosis of AD were homogenized in PBS, pH 7.4, and then pelleted after centrifugation. The pellets were then washed with agitation twice for 30 minutes, 4° C., with PBS or PBS containing clioquinol (100% =0.8 μM clioquinol). The suspension was then pelleted (10,000 g for 30 minutes) and the supernatant removed (S1) for western blot analysis using Aβ-specific antibodies (illustrated). The pellet was treated a second time in this experiment with agitation and centrifugation, and the second supernatant (S2) analysed.
# Soluble Aβ (ng/g tissue) was determined as described. Total Aβ was determined following formic acid extraction of otherwise untreated tissue.
# (§1) Suitable quantities of gray matter from each subject were minced to serve as pools of homogenous tissue. […] To obtain the soluble fraction, the homogenates were centrifuged at 100,000× g for 30 min (Beckman J180, Beckman instruments, Fullerton, California) and the supernatant collected in 1 ml aliquots and stored on ice or immediately frozen at −70° C. In each experiment, all protein was precipitated from 1 ml of supernatant from each treatment group using 1:5 ice cold 10% trichloracetic acid and pelleted in a bench top microfuge (Heraeus, Osteroder, Germany) at 10,000× g. The remaining pellet was frozen at −70° C.
# Precipitated protein was subjected to SDS polyacrylamide gel electrophoresis (SDS-PAGE) on Novex pre-cast 10-20% Tris-Tricine gels followed by Western transfer onto 0.2 μm nitrocellulose membrane (Biorad, Hercules, Calif.). […] Each gel included two or more lanes containing known quantities of synthetic Aβ which served as internal reference standards. Blot images were captured by a Relisys scanner with transparency adapter (Teco Information Systems, Taiwan, ROC) and densitometry conducted using the NIH Image 1.6 program (National Institutes for Health, USA. Modified for PC by Scion Corporation, Frederick, Md.), calibrated using a step diffusion chart. For quantitation of Aβ in brain extracts, the internal reference standards of synthetic Aβ were utilized to produce standard curves from which values were interpolated.
# [2] = tested on: Aβ deposits of age-matched control brain; assay: Extraction of Aβ from age-matched non-AD control brain tissue; type: biochemical, human
# Protocol: as §1
# Precipitated protein was subjected to SDS polyacrylamide gel electrophoresis (SDS-PAGE) on Novex pre-cast 10-20% Tris-Tricine gels followed by Western transfer onto 0.2 μm nitrocellulose membrane (Biorad, Hercules, Calif.). Aβ was detected using the WO2, G210 or G211 monoclonal antibodies (Ida, N., et al., J. Biol. Chem., 271:22908 (1996)) in combination with HRP-conjugated rabbit anti-mouse IgG (Dako, Denmark), and visualized using chemiluminescence (ECL, Amersham Life Science, Little Chalfont, Buckinghamshire, UK). Each gel included two or more lanes containing known quantities of synthetic Aβ which served as internal reference standards. Blot images were captured by a Relisys scanner with transparency adapter (Teco Information Systems, Taiwan, ROC) and densitometry conducted using the NIH Image 1.6 program (National Institutes for Health, USA. Modified for PC by Scion Corporation, Frederick, Md.), calibrated using a step diffusion chart. For quantitation of Aβ in brain extracts, the internal reference standards of synthetic Aβ were utilized to produce standard curves from which values were interpolated.
# [3] = Residual metals in post-centrifugation pellets of brain homogenates (ICP-AES); type: biochemical, human; conditions: Table 6
# Aβ1-42 = Aβ1-42 (Homo sapiens, UniProt P05067); assay: Effect of metal chelators on H2O2 production from Aβ1-42; type: biochemical
# Aβ1-42, sequence (P05067 672-713 limits assumed): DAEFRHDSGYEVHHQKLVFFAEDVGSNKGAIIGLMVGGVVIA
# [4] = Table 5, NIST database, cited from earlier work
# [5] = Table 5; NIST database; cited from earlier work
# [6] = Table 5; NIST database; cited from earlier work; remark: listed apart in the source
compound,measurement,setting,value
"C[S+](C)[O-] [DMSO, dimethyl sulfoxide]",effect of OH. scavengers on OH. generation by Aβ1-42,TBARS assay of OH.,neither were able to quench
OC[C@@H](O)[C@@H](O)[C@H](O)[C@H](O)CO [mannitol],effect of OH. scavengers on OH. generation by Aβ1-42,TBARS assay of OH.,neither were able to quench
same,effect on Cu^2+-induced SDS-resistant Aβ polymerization,Aβ,abolishes the polymerization
bathocuproinedisulfonic acid [BC],% of total Aβ extracted,[1],3.1% and 7.2% and 6%
same,"% of total Aβ extracted, + PBS",[1],2.36% and 5.4% and 3.7%
same,"Extractable Aβ (% of total), X (mean)",[1],(5.4) %
same,"Extractable Aβ, X (mean)",[1],4.10 µg/g
same,X C/PBS (mean chelator / PBS),[1],3.90
same,concentration response of Aβ solubilization,[1],typical concentration-dependent response with no decline in effectiveness
same,mean increase of Aβ solubilization over PBS alone,[1],around 4 fold
same,Extractable Aβ,"[2]; AC subject 1, chelator 2 mM",0.03 µg/g
same,Extractable Aβ (% of total),"[2]; AC subject 1, chelator 2 mM",(5) %
same,Extractable Aβ,"[2]; AC subject 2, chelator 2 mM",0.24 µg/g
same,Extractable Aβ (% of total),"[2]; AC subject 2, chelator 2 mM",(5.7) %
same,Extractable Aβ,"[2]; AC subject 3, chelator 2 mM",0.29 µg/g
same,Extractable Aβ (% of total),"[2]; AC subject 3, chelator 2 mM",(11.0) %
same,Extractable Aβ,"[2]; AC subject 4, chelator 2 mM",0.08 µg/g
same,Extractable Aβ (% of total),"[2]; AC subject 4, chelator 2 mM",(2.6) %
same,Extractable Aβ,"[2]; AC subject 5, chelator 2 mM",0.98 µg/g
same,Extractable Aβ (% of total),"[2]; AC subject 5, chelator 2 mM",(27.2) %
same,"Extractable Aβ (% of total), X (mean)","[2]; AC subjects 1-5, chelator 2 mM",(10.3) %
same,"Extractable Aβ, X (mean)","[2]; AC subjects 1-5, chelator 2 mM",0.32 µg/g
same,X C/PBS (mean chelator / PBS),"[2]; age-matched control tissue, chelator 2 mM",1.28
same,effect on Aβ solubilization compared with AD tissue,"[2]; non-demented, aged-matched controls",much reduced
same,Residual Al in extracted pellet,[3]; chelator 0.001 mM,88 mg/kg
same,Residual Ca in extracted pellet,[3]; chelator 0.001 mM,1306 mg/kg
same,Residual Cu in extracted pellet,[3]; chelator 0.001 mM,13 mg/kg
same,Residual Fe in extracted pellet,[3]; chelator 0.001 mM,275 mg/kg
same,Residual Mg in extracted pellet,[3]; chelator 0.001 mM,225 mg/kg
same,Residual Zn in extracted pellet,[3]; chelator 0.001 mM,47 mg/kg
same,Residual Al in extracted pellet,[3]; chelator 0.004 mM,33 mg/kg
same,Residual Ca in extracted pellet,[3]; chelator 0.004 mM,489 mg/kg
same,Residual Cu in extracted pellet,[3]; chelator 0.004 mM,12 mg/kg
same,Residual Fe in extracted pellet,[3]; chelator 0.004 mM,231 mg/kg
same,Residual Mg in extracted pellet,[3]; chelator 0.004 mM,234 mg/kg
same,Residual Zn in extracted pellet,[3]; chelator 0.004 mM,47 mg/kg
same,Residual Al in extracted pellet,[3]; chelator 0.01 mM,73 mg/kg
same,Residual Ca in extracted pellet,[3]; chelator 0.01 mM,762 mg/kg
same,Residual Cu in extracted pellet,[3]; chelator 0.01 mM,13 mg/kg
same,Residual Fe in extracted pellet,[3]; chelator 0.01 mM,256 mg/kg
same,Residual Mg in extracted pellet,[3]; chelator 0.01 mM,223 mg/kg
same,Residual Zn in extracted pellet,[3]; chelator 0.01 mM,49 mg/kg
same,Residual Al in extracted pellet,[3]; chelator 0.04 mM,38 mg/kg
same,Residual Ca in extracted pellet,[3]; chelator 0.04 mM,753 mg/kg
same,Residual Cu in extracted pellet,[3]; chelator 0.04 mM,15 mg/kg
same,Residual Fe in extracted pellet,[3]; chelator 0.04 mM,248 mg/kg
same,Residual Mg in extracted pellet,[3]; chelator 0.04 mM,226 mg/kg
same,Residual Zn in extracted pellet,[3]; chelator 0.04 mM,56 mg/kg
same,Residual Al in extracted pellet,[3]; chelator 2.0 mM,42 mg/kg
same,Residual Ca in extracted pellet,[3]; chelator 2.0 mM,1602 mg/kg
same,Residual Cu in extracted pellet,[3]; chelator 2.0 mM,14 mg/kg
same,Residual Fe in extracted pellet,[3]; chelator 2.0 mM,271 mg/kg
same,Residual Mg in extracted pellet,[3]; chelator 2.0 mM,254 mg/kg
same,Residual Zn in extracted pellet,[3]; chelator 2.0 mM,49 mg/kg
same,Residual Al in extracted pellet,[3]; chelator 5.0 mM,38 mg/kg
same,Residual Ca in extracted pellet,[3]; chelator 5.0 mM,912 mg/kg
same,Residual Cu in extracted pellet,[3]; chelator 5.0 mM,15 mg/kg
same,Residual Fe in extracted pellet,[3]; chelator 5.0 mM,249 mg/kg
same,Residual Mg in extracted pellet,[3]; chelator 5.0 mM,238 mg/kg
same,Residual Zn in extracted pellet,[3]; chelator 5.0 mM,53 mg/kg
same,effect on H2O2 formation by Aβ1-42,Aβ1-42,substantially inhibited; also recorded: inhibited H2O2 formation
same,effect on Cu^2+-induced SDS-resistant Aβ polymerization,Aβ,marked decrease in polymerization
same,"Stability constant logK10, Cu^2+",[4]; Cu^2+,6.1
same,"Stability constant logK10, Cu^+",[4]; Cu^+,19.1
same,"Stability constant logK10, Zn",[5],4.1
same,"Stability constant logK10, Co",[6],4.2
